Measurements published in US8530623B2, “Proteasome-activating lightening peptides and compositions containing same” (ISP Investments Inc., priority 2009, dated 2013).
Where no end group is shown, it is not given here.

Tested on: melanin present in the epidermis of human skin samples
Assay: Depigmenting effect ex vivo on human skin biopsies (Fontana-Masson melanin staining)
Assay type: cell-based
Settings: 2 applications per day
Description: 6 mm diameter biopsies are taken from human skin samples. These biopsies are maintained in ex vivo survival in the presence of a specific medium (DMEM 1 g/L, HAMF12, SVF and antibiotics) on inserts deposited in 6-well plates. The biopsies are then pretreated for 24 hours with the active principle at 3% concentration at a rate of 2 applications per day. Other skin samples will not be pretreated with the active principle and will be used as the control condition. Subsequently, the biopsies are subjected to UVB irradiation at a rate of 100 mJ/cm^2. The pretreated biopsies are again treated for 24 hours with the active principle at 3% concentration at a rate of 2 applications per day. After this second treatment, a quantitative evaluation of the quantity of melanin present in the epidermis of skin samples is carried out histologically, with an optical microscope, after staining according to the Fontana-Masson method.
To do this, the skin biopsies are enclosed in paraffin and histological sections with a thickness of 4 μm are made. These sections are then stained by the Fontana-Masson technique: The paraffin is removed from the slides; the slides being hydrated and then treated with a silver ammonium hydroxide solution. […]

Asp-Cys-Arg-NH2 [SEQ ID No. 2]
melanin level (pigmentation level) in the epidermis, absence of UVB irradiation (active principle at 3% concentration, 24 hours, no UVB, vs untreated skin, optical microscope): reduces the melanin level | melanin synthesis induced by UVB irradiation (pigmentation level after UVB) (pretreated 24 hours at 3%, UVB 100 mJ/cm^2, treated again 24 hours, vs untreated control): very distinctly reduced
